This note sets out measurements from patent US20140011814A1, “DIAMINE AND MEGLUMINE SALT FORMS OF FATTY ACIDS” (THETIS PHARMACEUTICALS LLC, priority 2012, published 2014).

What is called Cmax is the highest concentration seen after dosing. What is called Tmax is the time at which the peak concentration occurs.

The data set is described as follows: Rat oral pharmacokinetics (plasma analyzed for eicosapentaenoic acid). The note with it: analyte EPA in plasma, oral gavage 40 mg/kg as aqueous solution in 0.5% carboxymethyl cellulose, Sprague-Dawley rats, mean of 6 rats; for AUC (0-24): 0-24 h.

Molecules are shown by their SMILES.

For `CC/C=C\C/C=C\C/C=C\C/C=C\C/C=C\CCCC(=O)O.CC/C=C\C/C=C\C/C=C\C/C=C\C/C=C\CCCC(=O)O.NCCN` [Ethylene diamine di-eicosapentaenoate, Ethane-1,2-diaminium di[5Z,8Z,11Z,14Z,17Z)-icosa-5,8,11,14,17-pentaenoate]], the “AUC (0-24)” value was determined as 275.29 µg·h/mL, the Cmax is 18370 ng/mL and the Tmax amounted to 2.0 h.
As for `C1CNCCN1.CC/C=C\C/C=C\C/C=C\C/C=C\C/C=C\CCCC(=O)O.CC/C=C\C/C=C\C/C=C\C/C=C\C/C=C\CCCC(=O)O` [Piperazine di-eicosapentaenoate, Bis[5Z,8Z,11Z,14Z,17Z)-icosa-5,8,11,14,17-pentaenoate]piperazine salt], the “AUC (0-24)” value worked out at 134.85 µg·h/mL, the Cmax turned out to be 28220 ng/mL and the Tmax is 1.0 h.
